Consider seven compounds from PMC8309051, “Structure–Activity Relationship and Molecular Docking of a Kunitz-Like Trypsin Inhibitor, Kunitzin-AH, from the Skin Secretion of Amolops hainanensis” (Pharmaceutics, 2021).

Read-outs that look alike come from different tables or passages of the source. Where a SMILES comes first, the peptide text is derived from it. Bridges are numbered along the chain shown (N, C = ends).

The target of one series is T1, bovine trypsin (Bos taurus, UniProt P00760).
T1 sequence (P00760 24-246): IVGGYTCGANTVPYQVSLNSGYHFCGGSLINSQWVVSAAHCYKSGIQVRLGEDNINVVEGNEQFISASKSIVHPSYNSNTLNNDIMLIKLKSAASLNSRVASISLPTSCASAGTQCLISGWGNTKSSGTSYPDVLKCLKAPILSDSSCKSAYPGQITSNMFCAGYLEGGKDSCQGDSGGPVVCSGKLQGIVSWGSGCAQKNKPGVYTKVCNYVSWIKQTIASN
Description: Trypsin inhibition assay (kinetic, substrate Phe-Pro-Arg-AMC). The series is classed as biochemical. How it is done: The kinetic enzyme assay was performed as described in the previous study. Substrate Phe-Pro-Arg-AMC was employed for investigating the hydrolysis of bovine trypsin. Trypsin working solution (10 µL trypsin stock solution (0.1 µM) + 9.99 mL HCl (1 mM)) and trypsin substrate working solution (50 µL substrate stock solution (Phe-Pro-Arg-AMC) (10 mM) + 9.95 mL PBS) were prepared prior to use. Trypsin inhibition assay contained three groups, namely positive control (20 µL PBS, 180 µL substrate working solution, 10 µL trypsin working solution), blank control (20 µL PBS + 10 µL HCl (1 mM) + 180 µL substrate working solution) and peptide group (20 µL peptide solution with the concentration ranging from 10 to 1000 µM, 180 µL substrate working solution, 10 µL trypsin working solution). The fluorescent strength released from hydrolysis of the substrate was monitored at 37 °C at the wavelength of 460 nm (excitation at 360 nm) in a POLARstar Omega Microplate Reader (B.M.G. Labtech, Offenburg, German). Each concentration of the sample was carried out in triplicate and repeated at least three times.
Peptide concentration ( μM)
Figure S3. The progress curve of inhibition rate in the presence of different concentrations of pep-tides (a) Kunitzin-AH; (b) AH-1363; (c) AH-unoxidized; (d) AH-1447; (e) AH-798; (f) AH-880-I; (g) […]
The Y-axis represented the rate of the fluorescence decay, while the X-axis represented peptide concentrations in µM. The Ki values were calculated by Morrison formula in Prism 6, in […]
Error bars represent standard error of mean
(SEM) of three replicates. […]

The next series concerns horse erythrocytes. Description: Hemolytic activity assay. The series is classed as cell-based. Particulars: for Hemolysis: 2% horse erythrocytes suspension, 37 °C, two hours. How it is done: Hemolysis assay was conducted through the incubation of peptides and 2% horse erythrocytes suspension (T.C.S. Biosciences Ltd. Buckingham, UK) at 37 °C for two hours as detailed in the previous study. Afterwards, the positive control (considered as 100% hemolysis of cells) was conducted with 1% Triton X-100 (Sigma, Dorset, UK), while the negative control (0%) was treated with phosphate-buffered saline (PBS). The absorbance values were subsequently measured with a Synergy H.T. plate reader (BioTech, Minneapolis, MN, USA) and calculated by using Gen 5 software at a wavelength of 550 nm.

[1] abbreviates: Morrison formula, three independent experiments, 37 °C, read-out: Ki Value.

`C[C@@H]1NC(=O)[C@H](C)NC(=O)[C@H](CCCCN)NC(=O)[C@@H](NC(=O)[C@@H](N)CCCNC(=N)N)CSSC[C@@H](C(=O)O)NC(=O)[C@H](Cc2ccccc2)NC1=O` [AH-798, RCKAAFC] (H-RCKAAFC-OH; disulfide 2-7): the Ki at bovine trypsin (setting [1]) is 1.76 ± 0.13 µM. Moreover, the Hemolysis in the series on horse erythrocytes is over 512 µM.

Consider `CC[C@H](C)[C@@H]1NC(=O)[C@H](CCCCN)NC(=O)[C@@H](NC(=O)[C@@H](N)CCCNC(=N)N)CSSC[C@@H](C(=O)O)NC(=O)[C@H](Cc2ccccc2)NC(=O)[C@H]([C@@H](C)CC)NC1=O` [AH-880-I, RCKIIFC] (H-RCKIIFC-OH; disulfide 2-7), for which, at bovine trypsin (setting [1]), the Ki stood at 16.1 ± 1.2 µM. The Hemolysis in the series on horse erythrocytes is reported as over 512 µM.

Take `N=C(N)NCCC[C@H](N)C(=O)N[C@H]1CSSC[C@@H](C(=O)O)NC(=O)[C@H](Cc2ccccc2)NC(=O)[C@H](CC(N)=O)NC(=O)[C@H](CC(N)=O)NC(=O)[C@H](CCCCN)NC1=O` [AH-884, RCKNNFC] (H-RCKNNFC-OH; disulfide 2-7): the Ki on bovine trypsin (setting [1]) was 133 ± 4.1 µM. Further, in the series with horse erythrocytes, the Hemolysis was over 512 µM.

With `CC(C)[C@H](NC(=O)[C@H](C)N)C(=O)N[C@@H](CCCNC(=N)N)C(=O)N1CCC[C@H]1C(=O)N1CCC[C@H]1C(=O)N[C@@H](Cc1ccccc1)C(=O)N[C@@H](CCCNC(=N)N)C(=O)N[C@@H](CS)C(=O)N[C@@H](CCCCN)C(=O)N[C@@H](C)C(=O)N[C@@H](C)C(=O)N[C@@H](Cc1ccccc1)C(=O)O` [AH-1363, AVRPPFRCKAAF] (H-AVRPPFRCKAAF-OH; N-terminus and C-terminus assumed), the Ki on bovine trypsin is 96.9 ± 1.2 µM. Besides, the Hemolysis in the series with horse erythrocytes was over 512 µM.

At bovine trypsin, `CC(C)[C@H](NC(=O)[C@H](C)N)C(=O)N[C@@H](CCCNC(=N)N)C(=O)N1CCC[C@H]1C(=O)N1CCC[C@H]1C(=O)N[C@@H](Cc1ccccc1)C(=O)N[C@@H](CCCNC(=N)N)C(=O)N[C@H]1CSSC[C@@H](C(=O)O)NC(=O)[C@H](CCCCN)NC(=O)[C@H](C)NC(=O)[C@H](C)NC(=O)[C@H](CCCCN)NC1=O` [AH-1447, AVRPPFRCKAAKC] (H-AVRPPFRCKAAKC-OH; disulfide 8-13) yielded a Ki of 349.2 ± 0.93 µM. Besides, the Hemolysis in the series with horse erythrocytes was over 512 µM.

Turning to `CC(C)[C@H](NC(=O)[C@H](C)N)C(=O)N[C@@H](CCCNC(=N)N)C(=O)N1CCC[C@H]1C(=O)N1CCC[C@H]1C(=O)N[C@@H](Cc1ccccc1)C(=O)N[C@@H](CCCNC(=N)N)C(=O)N[C@@H](CS)C(=O)N[C@@H](CCCCN)C(=O)N[C@@H](C)C(=O)N[C@@H](C)C(=O)N[C@@H](Cc1ccccc1)C(=O)N[C@@H](CS)C(=O)O` [AH-unoxidized, AVRPPFRCKAAFC] (H-AVRPPFRCKAAFC-OH), the Ki at bovine trypsin was 59.9 ± 2.82 µM. In addition, in the series with horse erythrocytes, the Hemolysis was over 512 µM.

As for `CC(C)[C@H](NC(=O)[C@H](C)N)C(=O)N[C@@H](CCCNC(=N)N)C(=O)N1CCC[C@H]1C(=O)N1CCC[C@H]1C(=O)N[C@@H](Cc1ccccc1)C(=O)N[C@@H](CCCNC(=N)N)C(=O)N[C@H]1CSSC[C@@H](C(=O)O)NC(=O)[C@H](Cc2ccccc2)NC(=O)[C@H](C)NC(=O)[C@H](C)NC(=O)[C@H](CCCCN)NC1=O` [Kunitzin-AH, AVRPPFRCKAAFC] (H-AVRPPFRCKAAFC-OH; disulfide 8-13), the affinity at bovine trypsin corresponds to a Ki of 1.18 ± 0.08 µM. Also, in the series on horse erythrocytes, the Hemolysis was over 512 µM. Also, in the series with horse erythrocytes (normal horse erythrocytes), the “hemolytic activity (in words)” value is reported as “without inducing damage to healthy horse erythrocytes”.

The Ki is the equilibrium dissociation constant of an inhibitor or competing ligand from its target.
